In paper PMC6540285, “Evaluation of Protein Kinase Inhibitors with PLK4 Cross-Over Potential in a Pre-Clinical Model of Cancer” (International Journal of Molecular Sciences, 2019):

Columns and labels:
MAPK8 (JNK1) = MAPK8 (JNK1) (Homo sapiens, UniProt P45983); assay: SelectScreen kinase profiling, ZLYTE; type: biochemical
SIK3 = SIK3 (Homo sapiens, UniProt Q9Y2K2); assay: SelectScreen kinase profiling, LanthaScreen binding; settings: SIK3, 10 µM
PRKG1 = PRKG1 (Homo sapiens, UniProt Q13976); assay: SelectScreen kinase profiling, ZLYTE; type: biochemical; settings: PRKG1, 10 µM
ACVR1B (ALK4) = ACVR1B (ALK4) (Homo sapiens, UniProt P36896); assay: SelectScreen kinase profiling, ZLYTE; type: biochemical
STK17A (DRAK1) = STK17A (DRAK1) (Homo sapiens, UniProt Q9UEE5); assay: SelectScreen kinase profiling, LanthaScreen binding
RIPK2 = RIPK2 (Homo sapiens, UniProt O43353); assay: as above; settings: RIPK2, 10 µM
FGFR3 G697C = FGFR3 G697C (Homo sapiens, UniProt P22607, G697C); assay: as above
AMPK (A2/B1/G3) = AMPK (A2/B1/G3) (Homo sapiens, UniProt P54646); assay: SelectScreen kinase profiling, ZLYTE; type: biochemical
CHUK (IKK alpha) = CHUK (IKK alpha) (Homo sapiens, UniProt O15111); assay: SelectScreen kinase profiling, Adapta; type: biochemical
FER = FER (Homo sapiens, UniProt P16591); assay: SelectScreen kinase profiling, ZLYTE; type: biochemical
[1] = molecular target: MAP2K6 (MKK6) S207E T211E (Homo sapiens, UniProt P52564, S207E/T211E); assay: SelectScreen kinase profiling, LanthaScreen binding
RET V804L = RET V804L (Homo sapiens, UniProt P07949, V804L); assay: SelectScreen kinase profiling, ZLYTE; type: biochemical
LRRK2 FL = LRRK2 FL (Homo sapiens, UniProt Q5S007); assay: SelectScreen kinase profiling, Adapta; type: biochemical
PDGFRA (PDGFR alpha) = PDGFRA (PDGFR alpha) (Homo sapiens, UniProt P16234); assay: SelectScreen kinase profiling, ZLYTE; type: biochemical
FGFR4 = FGFR4 (Homo sapiens, UniProt P22455); assay: SelectScreen kinase profiling, ZLYTE; type: biochemical; settings: FGFR4, 10 µM
SGKL (SGK3) = SGKL (SGK3) (Homo sapiens, UniProt Q96BR1); assay: SelectScreen kinase profiling, ZLYTE; type: biochemical
HUNK = HUNK (Homo sapiens, UniProt P57058); assay: SelectScreen kinase profiling, LanthaScreen binding
PLK1 = PLK1 (Homo sapiens, UniProt P53350); assay: SelectScreen kinase profiling, ZLYTE; type: biochemical; settings: PLK1, 10 µM
EEF2K = EEF2K (Homo sapiens, UniProt O00418); assay: SelectScreen kinase profiling, ZLYTE; type: biochemical
MAPKAPK2 = MAPKAPK2 (Homo sapiens, UniProt P49137); assay: SelectScreen kinase profiling, ZLYTE; type: biochemical; settings: MAPKAPK2, 10 µM
PRKD1 (PKC mu) = PRKD1 (PKC mu) (Homo sapiens, UniProt Q15139); assay: SelectScreen kinase profiling, ZLYTE; type: biochemical
IKBKB (IKK beta) = IKBKB (IKK beta) (Homo sapiens, UniProt O14920); assay: SelectScreen kinase profiling, ZLYTE; type: biochemical
STK16 (PKL12) = STK16 (PKL12) (Homo sapiens, UniProt O75716); assay: SelectScreen kinase profiling, LanthaScreen binding
PRKCI (PKC iota) = PRKCI (PKC iota) (Homo sapiens, UniProt P41743); assay: SelectScreen kinase profiling, ZLYTE; type: biochemical
SPHK1 = SPHK1 (Homo sapiens, UniProt Q9NYA1); assay: SelectScreen kinase profiling, Adapta; type: biochemical; settings: SPHK1, 10 µM
ABL1 T315I = ABL1 T315I (Homo sapiens, UniProt P00519, T315I); assay: SelectScreen kinase profiling, ZLYTE; type: biochemical
CLK4 = CLK4 (Homo sapiens, UniProt Q9HAZ1); assay: SelectScreen kinase profiling, LanthaScreen binding; settings: CLK4, 10 µM
MAP2K2 (MEK2) = MAP2K2 (MEK2) (Homo sapiens, UniProt P36507); assay: as above
PIK3CG (p110 gamma) = PIK3CG (p110 gamma) (Homo sapiens, UniProt P48736); assay: SelectScreen kinase profiling, Adapta; type: biochemical
MAPK10 (JNK3) = MAPK10 (JNK3) (Homo sapiens, UniProt P53779); assay: SelectScreen kinase profiling, LanthaScreen binding
MKNK1 (MNK1) = MKNK1 (MNK1) (Homo sapiens, UniProt Q9BUB5); assay: SelectScreen kinase profiling, ZLYTE; type: biochemical
PIK3C2B (PI3K-C2 beta) = PIK3C2B (PI3K-C2 beta) (Homo sapiens, UniProt O00750); assay: SelectScreen kinase profiling, Adapta; type: biochemical
GSK3A (GSK3 alpha) = GSK3A (GSK3 alpha) (Homo sapiens, UniProt P49840); assay: SelectScreen kinase profiling, ZLYTE; type: biochemical
MAP3K5 (ASK1) = MAP3K5 (ASK1) (Homo sapiens, UniProt Q99683); assay: SelectScreen kinase profiling, LanthaScreen binding
MAP2K6 (MKK6) = MAP2K6 (MKK6) (Homo sapiens, UniProt P52564); assay: as above
RT and MB cells = assay: Cell cycle analysis (PI flow cytometry); type: cell-based; settings: 2µM
Description: Cell cycle analysis was performed by flow cytometry of cells stained with Propidium Iodide (PI) (Thermo Fisher Scientific, Carlsbad, CA, USA) according to manufacturer’s instructions. Cells treated with the top PLK4i candidates and 0.1% DMSO (control) were fixed in 80% ethanol overnight, stained with PI, and then subjected to flow cytometric analysis using a BD Fortessa instrument (BD Biosciences, San Jose, CA, USA). Data was analyzed using Modfit LT from Verity Software House (Topsham, ME, USA). All experiments were performed in triplicate.

STK23 (MSSK1) = STK23 (MSSK1) (Homo sapiens, UniProt Q9UPE1); assay: SelectScreen kinase profiling, ZLYTE; type: biochemical
Source text: Kinase Technology % Inhibition Avg Kinase Technology % Inhibition Avg

MAPK8 (JNK1), sequence (P45983 whole entry): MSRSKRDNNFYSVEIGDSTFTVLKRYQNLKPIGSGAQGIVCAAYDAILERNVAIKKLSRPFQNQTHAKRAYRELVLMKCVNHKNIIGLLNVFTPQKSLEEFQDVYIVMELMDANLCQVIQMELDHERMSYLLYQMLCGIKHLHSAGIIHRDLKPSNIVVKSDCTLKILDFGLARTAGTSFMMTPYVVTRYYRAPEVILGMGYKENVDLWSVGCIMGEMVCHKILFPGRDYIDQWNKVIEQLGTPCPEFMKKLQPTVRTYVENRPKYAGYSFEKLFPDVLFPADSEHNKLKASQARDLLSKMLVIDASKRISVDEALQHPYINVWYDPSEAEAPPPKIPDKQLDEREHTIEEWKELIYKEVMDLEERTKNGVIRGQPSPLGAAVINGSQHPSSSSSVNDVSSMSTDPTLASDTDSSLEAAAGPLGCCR
PDGFRA (PDGFR alpha), sequence (P16234 24-1089): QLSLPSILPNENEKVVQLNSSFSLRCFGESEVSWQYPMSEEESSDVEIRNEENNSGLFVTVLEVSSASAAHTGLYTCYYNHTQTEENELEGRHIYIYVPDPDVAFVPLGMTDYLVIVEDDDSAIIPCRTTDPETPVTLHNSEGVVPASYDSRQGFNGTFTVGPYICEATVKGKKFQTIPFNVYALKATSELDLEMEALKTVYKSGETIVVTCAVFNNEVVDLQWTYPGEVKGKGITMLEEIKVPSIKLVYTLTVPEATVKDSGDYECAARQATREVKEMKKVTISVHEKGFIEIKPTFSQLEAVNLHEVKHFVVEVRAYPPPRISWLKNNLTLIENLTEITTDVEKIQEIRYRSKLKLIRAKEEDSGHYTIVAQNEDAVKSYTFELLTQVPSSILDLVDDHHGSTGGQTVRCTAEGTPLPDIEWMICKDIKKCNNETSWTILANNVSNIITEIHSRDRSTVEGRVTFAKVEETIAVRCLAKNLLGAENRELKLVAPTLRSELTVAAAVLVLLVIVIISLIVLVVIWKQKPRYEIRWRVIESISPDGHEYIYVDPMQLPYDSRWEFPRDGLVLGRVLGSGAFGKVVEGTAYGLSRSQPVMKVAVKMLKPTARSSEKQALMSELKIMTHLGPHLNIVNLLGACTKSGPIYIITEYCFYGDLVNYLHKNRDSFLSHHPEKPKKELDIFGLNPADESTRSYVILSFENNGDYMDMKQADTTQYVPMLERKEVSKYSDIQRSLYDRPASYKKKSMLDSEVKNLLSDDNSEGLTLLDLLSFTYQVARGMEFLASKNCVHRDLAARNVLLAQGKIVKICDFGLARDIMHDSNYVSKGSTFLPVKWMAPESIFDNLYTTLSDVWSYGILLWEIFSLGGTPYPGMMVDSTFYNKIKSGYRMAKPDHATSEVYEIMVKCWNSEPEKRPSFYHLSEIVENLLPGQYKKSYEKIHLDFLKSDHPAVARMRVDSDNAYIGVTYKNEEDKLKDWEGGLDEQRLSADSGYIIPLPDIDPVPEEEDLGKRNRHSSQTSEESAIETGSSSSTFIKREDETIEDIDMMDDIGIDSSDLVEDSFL
FGFR3 G697C, sequence (P22607 23-806 G697C): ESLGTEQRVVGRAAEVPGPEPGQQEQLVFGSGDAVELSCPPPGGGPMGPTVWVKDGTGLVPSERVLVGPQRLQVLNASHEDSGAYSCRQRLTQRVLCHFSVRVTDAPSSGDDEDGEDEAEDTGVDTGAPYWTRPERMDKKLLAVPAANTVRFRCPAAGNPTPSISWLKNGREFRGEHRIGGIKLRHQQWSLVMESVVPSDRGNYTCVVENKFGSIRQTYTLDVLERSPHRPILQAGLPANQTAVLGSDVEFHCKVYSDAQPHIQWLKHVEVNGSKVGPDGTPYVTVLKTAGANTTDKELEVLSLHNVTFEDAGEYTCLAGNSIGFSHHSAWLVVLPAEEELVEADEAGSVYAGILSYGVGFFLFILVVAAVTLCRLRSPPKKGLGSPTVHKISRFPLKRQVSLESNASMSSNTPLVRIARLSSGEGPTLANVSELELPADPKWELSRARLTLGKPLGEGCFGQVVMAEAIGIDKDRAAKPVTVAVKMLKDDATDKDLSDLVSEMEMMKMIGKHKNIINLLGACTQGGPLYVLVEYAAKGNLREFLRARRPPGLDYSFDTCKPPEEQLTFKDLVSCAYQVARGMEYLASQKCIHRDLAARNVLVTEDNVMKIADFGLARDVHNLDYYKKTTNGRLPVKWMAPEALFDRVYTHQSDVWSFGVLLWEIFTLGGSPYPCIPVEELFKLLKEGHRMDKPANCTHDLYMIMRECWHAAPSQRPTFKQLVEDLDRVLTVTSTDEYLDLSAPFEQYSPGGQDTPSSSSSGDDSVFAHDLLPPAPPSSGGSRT
AMPK (A2/B1/G3), sequence (P54646 whole entry): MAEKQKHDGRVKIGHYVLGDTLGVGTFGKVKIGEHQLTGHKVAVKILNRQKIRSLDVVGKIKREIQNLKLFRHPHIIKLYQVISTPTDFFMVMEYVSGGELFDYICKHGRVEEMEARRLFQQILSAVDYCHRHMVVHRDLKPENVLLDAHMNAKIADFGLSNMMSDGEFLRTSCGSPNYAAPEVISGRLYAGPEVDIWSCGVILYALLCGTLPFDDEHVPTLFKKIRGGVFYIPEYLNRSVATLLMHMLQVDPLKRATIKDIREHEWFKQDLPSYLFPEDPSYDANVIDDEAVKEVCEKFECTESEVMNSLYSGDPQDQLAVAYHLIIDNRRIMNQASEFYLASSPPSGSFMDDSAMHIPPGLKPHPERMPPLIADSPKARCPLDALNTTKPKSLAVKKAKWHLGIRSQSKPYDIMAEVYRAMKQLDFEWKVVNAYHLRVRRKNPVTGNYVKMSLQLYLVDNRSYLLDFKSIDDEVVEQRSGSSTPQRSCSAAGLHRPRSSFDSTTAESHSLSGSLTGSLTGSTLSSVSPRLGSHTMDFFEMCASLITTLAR
AMPK (A2/B1/G3), sequence (Q9Y478 whole entry partner): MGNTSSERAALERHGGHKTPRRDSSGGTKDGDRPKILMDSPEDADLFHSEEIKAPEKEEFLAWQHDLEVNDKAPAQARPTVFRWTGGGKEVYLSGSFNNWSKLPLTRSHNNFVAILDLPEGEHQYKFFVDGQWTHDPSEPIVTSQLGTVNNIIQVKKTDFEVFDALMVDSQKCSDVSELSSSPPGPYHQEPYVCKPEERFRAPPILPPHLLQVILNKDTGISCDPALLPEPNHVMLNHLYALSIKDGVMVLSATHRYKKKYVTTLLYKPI
AMPK (A2/B1/G3), sequence (Q9UGI9 whole entry partner): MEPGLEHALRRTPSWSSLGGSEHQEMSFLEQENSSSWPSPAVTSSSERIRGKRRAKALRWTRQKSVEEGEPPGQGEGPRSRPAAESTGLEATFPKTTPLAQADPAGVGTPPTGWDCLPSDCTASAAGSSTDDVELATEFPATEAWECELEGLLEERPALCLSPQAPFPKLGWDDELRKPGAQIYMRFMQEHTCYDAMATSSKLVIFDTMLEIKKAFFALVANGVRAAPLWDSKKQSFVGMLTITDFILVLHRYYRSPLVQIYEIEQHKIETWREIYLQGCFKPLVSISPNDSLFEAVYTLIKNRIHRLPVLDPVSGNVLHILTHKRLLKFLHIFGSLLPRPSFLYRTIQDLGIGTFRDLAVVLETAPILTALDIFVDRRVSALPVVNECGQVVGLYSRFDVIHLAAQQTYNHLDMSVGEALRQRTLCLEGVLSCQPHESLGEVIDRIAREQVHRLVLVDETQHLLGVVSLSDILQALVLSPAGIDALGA
ACVR1B (ALK4), sequence (P36896 24-505): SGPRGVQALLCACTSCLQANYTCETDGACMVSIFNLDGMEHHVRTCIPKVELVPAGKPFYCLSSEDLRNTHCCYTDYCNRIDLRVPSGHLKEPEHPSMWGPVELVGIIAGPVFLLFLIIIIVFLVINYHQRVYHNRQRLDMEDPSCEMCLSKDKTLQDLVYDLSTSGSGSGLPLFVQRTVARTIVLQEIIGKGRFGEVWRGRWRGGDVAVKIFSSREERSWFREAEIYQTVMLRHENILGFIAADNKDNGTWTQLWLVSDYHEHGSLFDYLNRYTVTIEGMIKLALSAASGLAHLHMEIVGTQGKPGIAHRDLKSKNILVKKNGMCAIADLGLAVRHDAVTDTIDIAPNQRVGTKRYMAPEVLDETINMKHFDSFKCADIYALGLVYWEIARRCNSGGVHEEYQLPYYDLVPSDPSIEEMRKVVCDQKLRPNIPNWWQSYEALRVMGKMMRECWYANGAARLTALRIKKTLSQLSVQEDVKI
GSK3A (GSK3 alpha), sequence (P49840 whole entry): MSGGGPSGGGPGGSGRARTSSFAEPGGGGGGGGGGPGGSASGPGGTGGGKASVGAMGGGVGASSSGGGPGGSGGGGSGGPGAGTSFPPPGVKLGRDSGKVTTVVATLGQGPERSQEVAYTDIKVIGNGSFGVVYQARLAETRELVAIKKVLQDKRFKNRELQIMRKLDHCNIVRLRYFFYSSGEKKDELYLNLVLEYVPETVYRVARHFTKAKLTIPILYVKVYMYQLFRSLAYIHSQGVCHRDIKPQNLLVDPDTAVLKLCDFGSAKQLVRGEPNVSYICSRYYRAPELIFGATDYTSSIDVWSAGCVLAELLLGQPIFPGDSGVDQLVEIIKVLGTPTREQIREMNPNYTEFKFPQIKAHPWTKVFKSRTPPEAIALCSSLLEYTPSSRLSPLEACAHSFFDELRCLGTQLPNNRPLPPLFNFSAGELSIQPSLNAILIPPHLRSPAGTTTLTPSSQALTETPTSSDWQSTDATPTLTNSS
MAPKAPK2, sequence (P49137 whole entry): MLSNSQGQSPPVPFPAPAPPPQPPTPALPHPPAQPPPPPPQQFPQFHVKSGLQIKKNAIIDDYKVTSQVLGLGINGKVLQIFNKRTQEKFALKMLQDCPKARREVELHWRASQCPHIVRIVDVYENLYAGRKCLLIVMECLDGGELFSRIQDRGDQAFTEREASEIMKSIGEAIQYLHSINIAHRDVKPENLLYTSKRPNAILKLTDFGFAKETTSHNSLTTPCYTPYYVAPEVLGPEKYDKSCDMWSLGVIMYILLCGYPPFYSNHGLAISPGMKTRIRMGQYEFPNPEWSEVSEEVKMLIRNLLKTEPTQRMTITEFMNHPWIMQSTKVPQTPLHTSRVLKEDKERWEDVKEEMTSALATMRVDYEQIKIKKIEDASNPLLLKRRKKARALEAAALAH

O=C(c1ccc(/C=C/c2n[nH]c3ccccc23)cc1)N1CCNCC1 [KW-2449]
inhibition at 10 µM (MAPK8 (JNK1)): 96% | inhibition at 10 µM (SIK3): -1% | inhibition at 10 µM (PRKG1): 77% | inhibition at 10 µM (ACVR1B (ALK4)): 39% | inhibition at 10 µM (STK17A (DRAK1)): 85% | inhibition at 10 µM (RIPK2): 77% | inhibition at 10 µM (FGFR3 G697C): 78% | inhibition at 10 µM (AMPK (A2/B1/G3)): 96% | inhibition at 10 µM (CHUK (IKK alpha)): 96% | inhibition at 10 µM (FER): 98% | inhibition at 10 µM [1]: 82% | inhibition at 10 µM (RET V804L): 100% | inhibition at 10 µM (LRRK2 FL): 100% | inhibition at 10 µM (PDGFRA (PDGFR alpha)): 91% | inhibition at 10 µM (FGFR4): 70% | inhibition at 10 µM (SGKL (SGK3)): 52% | inhibition at 10 µM (HUNK): 84% | inhibition at 10 µM (PLK1): 16% | inhibition at 10 µM (EEF2K): -1% | inhibition at 10 µM (MAPKAPK2): 28% | inhibition at 10 µM (PRKD1 (PKC mu)): 97% | inhibition at 10 µM (IKBKB (IKK beta)): 66% | inhibition at 10 µM (STK16 (PKL12)): 83% | inhibition at 10 µM (PRKCI (PKC iota)): 7% | inhibition at 10 µM (SPHK1): 17% | inhibition at 10 µM (ABL1 T315I): 101% | inhibition at 10 µM (CLK4): 84% | inhibition at 10 µM (MAP2K2 (MEK2)): 73% | inhibition at 10 µM (PIK3CG (p110 gamma)): 8% | inhibition at 10 µM (MAPK10 (JNK3)): 88% | inhibition at 10 µM (MKNK1 (MNK1)): 52% | inhibition at 10 µM (PIK3C2B (PI3K-C2 beta)): 9% | inhibition at 10 µM (GSK3A (GSK3 alpha)): 63% | inhibition at 10 µM (MAP3K5 (ASK1)): 63% | inhibition at 10 µM (MAP2K6 (MKK6)): 56% | polyploidy (cell cycle analysis) (RT and MB cells): induction of polyploidy with 2µM KW-2449 in all cell lines except DAOY | inhibition at 10 µM (STK23 (MSSK1)): 59%
